Structures can show the parent of a compound that is named as a salt. Where only a bound is given, the exact number is not on record here.

In general, IC50 refers to the concentration that gives 50% inhibition.

The target in the assay is Recombinant human Mat2a (Homo sapiens, UniProt P31153). Kind of assay: Determination of Mat2A activity (384 well absorbance-based assay, Biomol Green). Type of assay: biochemical. The following applies: 12.5 nM Mat2A, 100 μM ATP and Methionine, 2% DMSO, 120 minutes at RT, absorbance at 635 nm. On the procedure: Determination of Mat2A activity
Sequence of Recombinant human Mat2a (P31153 whole entry): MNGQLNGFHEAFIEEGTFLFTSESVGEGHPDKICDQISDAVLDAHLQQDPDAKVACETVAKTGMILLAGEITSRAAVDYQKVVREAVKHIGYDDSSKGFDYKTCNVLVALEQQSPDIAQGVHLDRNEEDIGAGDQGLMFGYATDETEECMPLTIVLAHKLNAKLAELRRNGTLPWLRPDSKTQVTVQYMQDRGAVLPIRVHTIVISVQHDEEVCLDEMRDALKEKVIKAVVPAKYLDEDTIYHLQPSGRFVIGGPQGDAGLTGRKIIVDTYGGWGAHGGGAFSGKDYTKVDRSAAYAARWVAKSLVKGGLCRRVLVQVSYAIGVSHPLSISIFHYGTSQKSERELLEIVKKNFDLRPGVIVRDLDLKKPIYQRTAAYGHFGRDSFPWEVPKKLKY
Measurement of Mat2A inhibition is performed in 384 well format absorbance-based assay. Recombinant human Mat2a (12.5 nM) and serial diluted compounds in DMSO (range of concentrations from […] to 508 pM) or controls (DMSO) are incubated for 15 minutes at room temperature (RT) in assay buffer containing 50 mM HEPES pH 7.5, 50 mM KCl, 50 mM MgCl2, 0.01% Tween 20 and 10 mM DTT. The reaction is initiated by the addition of the combined substrates ATP and Methionine, each at a final concentration of 100 μM. Final assay condition are 12.5 nM Mat2A, 100 μM ATP and Methionine Substrates and 2% DMSO. After 120 minutes of incubation at RT, the reaction is stopped by the addition of Biomol Green. The absorbance signal is measured at λ=635 nm with a multiplate reader (BMG Pherastar reader or equivalent) after 30 min of equilibration at RT.
Take `COc1c(C#N)cccc1-n1c(=O)nc(N)c2cc(Cl)c(C3CC3)nc21` [Example 65, 3-(4-amino-6-chloro-7-cyclopropyl-2-oxopyrido[2,3-d]pyrimidin-1(2H)-yl)-2-methoxybenzonitrile]: the IC50 came to 18 nM.
With `COc1ncccc1-n1c(=O)nc(N)c2cc(Cl)c(C3CC3)nc21` [Example 66, 4-amino-6-chloro-7-cyclopropyl-1-(2-methoxypyridin-3-yl)pyrido[2,3-d]pyrimidin-2(1H)-one], the IC50 was determined as 13 nM.
For the compound `Cc1cc(F)ccc1-n1c(=O)nc(N)c2ccc(C3CC3)nc21` [Example 67, 4-amino-7-cyclopropyl-1-(4-fluoro-2-methylphenyl)pyrido[2,3-d]pyrimidin-2-one], the IC50 was 18 nM.
For the compound `CCc1cccc(-n2c(=O)nc(N)c3ccc(C4CC4)nc32)c1` [Example 68, 4-amino-7-cyclopropyl-1-(3-ethylphenyl)pyrido[2,3-d]pyrimidin-2(1H)-one], the concentration for half-maximal inhibition (IC50) is less than 13 nM.
Regarding `Cc1cccc(-n2c(=O)nc(N)c3ccc(C4CC4)nc32)c1` [Example 69, 4-amino-7-cyclopropyl-1-(m-tolyl)pyrido[2,3-d]pyrimidin-2(1H)-one], the IC50 was less than 13 nM.
The result for `Nc1nc(=O)n(-c2cc(F)cc(F)c2)c2nc(C3CC3)ccc12` [Example 70, 4-amino-7-cyclopropyl-1-(3,5-difluorophenyl)pyrido[2,3-d]pyrimidin-2(1H)-one] reads 66 nM; that for `COc1cccc(-n2c(=O)nc(N)c3ccc(C4CC4)nc32)c1` [Example 71, 4-amino-7-cyclopropyl-1-(3-methoxyphenyl)pyrido[2,3-d]pyrimidin-2(1H)-one], less than 13 nM; that for `COc1cccc(-n2c(=O)nc(N)c3ccc(C4CC4)nc32)n1` [Example 72, 4-amino-7-cyclopropyl-1-(6-methoxypyridin-2-yl)pyrido[2,3-d]pyrimidin-2(1H)-one], less than 13 nM.
Regarding `Nc1nc(=O)n(-c2cccc(F)c2F)c2nc(C3CC3)ccc12` [Example 73, 4-amino-7-cyclopropyl-1-(2,3-difluorophenyl)pyrido[2,3-d]pyrimidin-2(1H)-one], the IC50 was less than 13 nM.
Consider `Nc1nc(=O)n(-c2ccccc2)c2nc(C3CC3)ccc12` [Example 74, 4-amino-7-cyclopropyl-1-phenylpyrido[2,3-d]pyrimidin-2(1H)-one], for which the IC50 was found to be 16 nM.
With `C[C@H](c1cnco1)n1c(=O)nc(N)c2ccc(C3CC3)nc21` [Example 75, 4-amino-7-cyclopropyl-1-(1-(oxazol-5-yl)ethyl)pyrido[2,3-d]pyrimidin-2(1H)-one], the IC50 was 99 nM.
Turning to `Cc1c(C#N)cccc1-n1c(=O)nc(N)c2ccc(C(F)(F)F)cc21` [Example 76, 3-(4-amino-2-oxo-7-(trifluoromethyl)quinazolin-1(2H)-yl)-2-methylbenzonitrile], the IC50 is less than 13 nM.
As to `Cc1c(C#N)cccc1-n1c(=O)nc(N)c2ccc(C(F)(F)F)nc21` [Example 77, 3-(4-amino-2-oxo-7-(trifluoromethyl)pyrido[2,3-d]pyrimidin-1(2H)-yl)-2-methylbenzonitrile], the IC50 was less than 13 nM.
With `Nc1nc(=O)n(-c2c(F)cccc2F)c2nc(C3CC3)ccc12` [Example 78, 4-amino-7-cyclopropyl-1-(2,6-difluorophenyl)pyrido[2,3-d]pyrimidin-2(1H)-one], the IC50 was less than 13 nM.
As to `Nc1nc(=O)n(-c2ccccc2F)c2nc(C3CC3)ccc12` [Example 79, 4-amino-7-cyclopropyl-1-(2-fluorophenyl)pyrido[2,3-d]pyrimidin-2(1H)-one], the IC50 is less than 13 nM.
As to `Nc1nc(=O)n(-c2cccc(F)c2)c2nc(C3CC3)ccc12` [Example 80, 4-amino-7-cyclopropyl-1-(3-fluorophenyl)pyrido[2,3-d]pyrimidin-2(1H)-one], the IC50 was less than 13 nM.
The result for `CC(C1COC1)n1c(=O)nc(N)c2ccc(C3CC3)nc21` (stereo not shown) [Example 81, 4-amino-7-cyclopropyl-1-[1-(oxetan-3-yl)ethyl]pyrido[2,3-d]pyrimidin-2-one] reads 42 nM; that for `CC(c1ccccn1)n1c(=O)nc(N)c2ccc(C3CC3)nc21` (stereo not shown) [Example 82, 4-amino-7-cyclopropyl-1-(1-pyridin-2-ylethyl)pyrido[2,3-d]pyrimidin-2-one], 36 nM.
The result for `Cc1ncccc1-n1c(=O)nc(N)c2ccc(CC(F)(F)F)cc21` [Example 83, 4-amino-1-(2-methyl-3-pyridyl)-7-(2,2,2-trifluoroethyl)quinazolin-2-one hydrochloride] reads 32 nM.
Take `Nc1nc(=O)n(C2CCOCC2)c2nc(C3CC3)ccc12` [Example 84, 4-amino-7-cyclopropyl-1-(tetrahydro-2H-pyran-4-yl)pyrido[2,3-d]pyrimidin-2(1H)-one]: the IC50 was 210 nM.
Regarding `Nc1nc(=O)n(-c2cccnc2Cl)c2nc(C3CC3)ccc12` [Example 85, 4-amino-1-(2-chloropyridin-3-yl)-7-cyclopropylpyrido[2,3-d]pyrimidin-2(1H)-one], the concentration for half-maximal inhibition (IC50) is less than 13 nM.
Turning to `Cc1ncccc1-n1c(=O)nc(N)c2ccc(C3CC3)cc21` [Example 86, 4-amino-7-cyclopropyl-1-(2-methylpyridin-3-yl)quinazolin-2 (1H)-one], the IC50 was less than 13 nM.
Regarding `Cc1ncccc1-n1c(=O)nc(N)c2c(Cl)cc(C(F)(F)F)cc21` [Example 87, 4-amino-5-chloro-1-(2-methylpyridin-3-yl)-7-(trifluoromethyl)quinazolin-2(1H)-one], the IC50 was 20 nM.
The result for `Nc1nc(=O)n(C2CCCOC23CC3)c2nc(C3CC3)ccc12` (stereo not shown) [Example 88, 4-amino-7-cyclopropyl-1-(4-oxaspiro[2.5]octan-8-yl)pyrido[2,3-d]pyrimidin-2(1H)-one] reads less than 13 nM; that for `Cc1ncsc1-n1c(=O)nc(N)c2ccc(N3C4CCC3CC4)nc21` [Example 90, 4-amino-7-(7-azabicyclo[2.2.1]heptan-7-yl)-1-(4-methylthiazol-5-yl)pyrido[2,3-d]pyrimidin-2-one], 13 nM.
On to `Cc1ccccc1-n1c(=O)nc(N)c2ccc(OC(F)F)nc21` [Example 91, 4-amino-7-(difluoromethoxy)-1-(2-methylphenyl)pyrido[2,3-d]pyrimidin-2-one], for which the IC50 was less than 13 nM.
The result for `COc1ccccc1-c1c(=O)nc(N)n2ccc(C(F)(F)F)cc12` [Example 92, 1-amino-4-(2-methoxyphenyl)-6-(trifluoromethyl)-3H-pyrido[1,2-c]pyrimidin-3-one] reads 37 nM; that for `Cc1ncccc1-n1c(=O)nc(N)c2ccc(C3CCOC3)nc21` (stereo not shown) [Example 93, 4-amino-1-(2-methylpyridin-3-yl)-7-(tetrahydrofuran-3-yl)pyrido[2,3-d]pyrimidin-2 (1H)-one], 27 nM; that for `Cc1ccccc1-n1c(=O)nc(N)c2c(C(N)=O)cc(C3CC3)nc21` [Example 94, 4-amino-7-cyclopropyl-2-oxo-1-(o-tolyl)-1,2-dihydropyrido[2,3-d]pyrimidine-5-carboxamide], 74 nM.
In the case of `Cc1ccccc1-n1c(=O)nc(N)c2c(C#N)cc(C3CC3)nc21` [Example 95, 4-amino-7-cyclopropyl-2-oxo-1-(o-tolyl)-1,2-dihydropyrido[2,3-d]pyrimidine-5-carbonitrile], the concentration for half-maximal inhibition (IC50) is 22 nM.
The result for `Cc1ccccc1-n1c(=O)nc(N)c2cnc(C3CC3)nc21` [Example 96, 4-amino-7-cyclopropyl-1-(o-tolyl)pyrimido[4,5-d]pyrimidin-2 (1H)-one] reads less than 13 nM; that for `Nc1nc(=O)n(C2CCNC(=O)C2)c2nc(C3CC3)ccc12` (stereo not shown) [Example 97, 4-amino-7-cyclopropyl-1-(2-oxopiperidin-4-yl)pyrido[2,3-d]pyrimidin-2 (1H)-one], 48 nM; that for `Cc1ncccc1-n1c(=O)nc(O)c2ccc(C3CC3)cc21` [Example 98, 7-cyclopropyl-1-(2-methylpyridin-3-yl)quinazoline-2,4-dione], 200 nM.
On to `Cc1ccccc1-n1c(=O)nc(O)c2ccc(C3CC3)nc21` [Example 99, 7-cyclopropyl-1-(2-methylphenyl)pyrido[2,3-d]pyrimidine-2,4-dione], for which the IC50 was found to be 65 nM.
Take `Cc1ccccc1-n1c(=O)[nH]c(=O)c2ccc(C3CC3)cc21` [Example 100, 7-cyclopropyl-1-(2-methylphenyl)quinazoline-2,4-dione]: the IC50 was found to be 350 nM.
As for `Cc1ncccc1-n1c(=O)nc(O)c2ccc(C3CC3)nc21` [Example 101, 7-cyclopropyl-1-(2-methylpyridin-3-yl)pyrido[2,3-d]pyrimidine-2,4-dione], the IC50 was 40 nM.
Turning to `COc1cc(C(F)(F)F)cc2c1c(N)nc(=O)n2-c1cccnc1C` [Example 102, 4-amino-5-methoxy-1-(2-methylpyridin-3-yl)-7-(trifluoromethyl)quinazolin-2 (1H)-one], the IC50 is 14 nM.
Turning to `COc1c(C#N)cccc1-n1c(=O)nc(N)c2cc(Cl)c(C(C)C)nc21` [Example 105, 3-(4-amino-6-chloro-7-isopropyl-2-oxopyrido[2,3-d]pyrimidin-1 (2H)-yl)-2-methoxybenzonitrile], the IC50 worked out at 42 nM.
Take `Cc1c(F)cccc1-n1c(=O)nc(N)c2ccc(C3CC3)cc21` [Example 106, 4-amino-7-cyclopropyl-1-(3-fluoro-2-methylphenyl)quinazolin-2-one]: the IC50 was less than 13 nM.
Take `Nc1nc(=O)n(C2COCCOC2)c2nc(C3CC3)ccc12` [Example 107, 4-amino-7-cyclopropyl-1-(1,4-dioxepan-6-yl)pyrido[2,3-d]pyrimidin-2-one]: the IC50 was 25 nM.

(Values after patent US20230227449A1, “AMIDOPYRIMIDONE DERIVATIVES” (Hoffmann-La Roche Inc., priority 2020, published 2023).)
